Results reported in PubChem BioAssay (NCI).
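Cells were grown in 96-well plates and exposed to each compound for 48 hours at five concentrations; endpoints were interpolated linearly between bracketing concentrations, or set to the highest concentration if not reached. Abbreviation: GI50, concentration required for 50% inhibition of growth. TGI denotes the concentration required for complete inhibition of growth.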

How the values were obtained:
Experiment in all cases: inhibition of tumour cell growth, NCI panel, 48 h
[1] = test system: 786-0 renal
[2] = test system: A498 renal
[3] = test system: A549 NSCLC
[4] = test system: ACHN renal
[5] = test system: BT-549 breast
[6] = test system: CAKI-1 renal
[7] = test system: CCRF-CEM leukemia
[8] = test system: COLO 205 colon
[9] = test system: DU-145 prostate
[10] = test system: EKVX NSCLC
[11] = test system: HCC-2998 colon
[12] = test system: HCT-116 colon
[13] = test system: HCT-15 colon
[14] = test system: HL-60(TB) leukemia
[15] = test system: HOP-62 NSCLC
[16] = test system: HOP-92 NSCLC
[17] = test system: HS 578T breast
[18] = test system: HT29 colon
[19] = test system: IGROV1 ovarian
[20] = test system: K-562 leukemia
[21] = test system: KM12 colon
[22] = test system: LOX IMVI melanoma
[23] = test system: M14 melanoma
[24] = test system: MALME-3M melanoma
[25] = test system: MCF7 breast
[26] = test system: MDA-MB-231 breast
[27] = test system: MDA-MB-435
[28] = test system: MDA-MB-468 breast
[29] = test system: MOLT-4 leukemia
[30] = test system: NCI-H226 lung
[31] = test system: NCI-H23 lung
[32] = test system: NCI-H460 lung
[33] = test system: NCI-H522 lung
[34] = test system: NCI/ADR-RES ovarian
[35] = test system: OVCAR-3 ovarian
[36] = test system: OVCAR-4 ovarian
[37] = test system: OVCAR-5 ovarian
[38] = test system: OVCAR-8 ovarian
[39] = test system: PC-3 prostate
[40] = test system: RPMI-8226 leukemia
[41] = test system: RXF 393 renal
[42] = test system: SF-268 CNS
[43] = test system: SF-295 CNS
[44] = test system: SF-539 CNS
[45] = test system: SK-MEL-2 melanoma
[46] = test system: SK-MEL-28 melanoma
[47] = test system: SK-MEL-5 melanoma
[48] = test system: SK-OV-3 ovarian
[49] = test system: SN12C renal
[50] = test system: SNB-19 CNS
[51] = test system: SNB-75 CNS
[52] = test system: SR leukemia
[53] = test system: SW-620 colon
[54] = test system: T-47D breast
[55] = test system: TK-10 renal
[56] = test system: U251 CNS
[57] = test system: UACC-257 melanoma
[58] = test system: UACC-62 melanoma
[59] = test system: UO-31 renal

Structure (SMILES): C/C(=N\N=C\c1cc([N+](=O)[O-])ccc1Cl)c1ccc2c(c1)Nc1ccccc1S2
- GI50 [1]: 12.4 µM
- TGI [1]: 27.6 µM
- GI50 [2]: 12.6 µM
- TGI [2]: 27.6 µM
- GI50 [3]: 7.56 µM
- TGI [3]: 31.8 µM
- GI50 [4]: 2.87 µM
- TGI [4]: 8.59 µM
- GI50 [5]: 20.7 µM
- TGI [5]: > 100 µM
- GI50 [6]: 12.5 µM
- TGI [6]: 27.7 µM
- GI50 [7]: 11.4 µM
- TGI [7]: > 100 µM
- GI50 [8]: 18.3 µM
- TGI [8]: > 100 µM
- GI50 [9]: 34.4 µM
- TGI [9]: > 100 µM
- GI50 [10]: 19.3 µM
- TGI [10]: 79.8 µM
- GI50 [11]: 52.2 µM
- TGI [11]: > 100 µM
- GI50 [12]: 3.36 µM
- TGI [12]: 15.3 µM
- GI50 [13]: 19.2 µM
- TGI [13]: > 100 µM
- GI50 [14]: 24.2 µM
- TGI [14]: > 100 µM
- GI50 [15]: 16.6 µM
- TGI [15]: 39.8 µM
- GI50 [16]: 16.1 µM
- TGI [16]: 89.5 µM
- GI50 [17]: 15 µM
- TGI [17]: 58.3 µM
- GI50 [18]: 26 µM
- TGI [18]: > 100 µM
- GI50 [19]: 23.6 µM
- TGI [19]: > 100 µM
- GI50 [20]: 16.8 µM
- TGI [20]: > 100 µM
- GI50 [21]: 35.8 µM
- TGI [21]: > 100 µM
- GI50 [22]: 31.3 µM
- TGI [22]: > 100 µM
- GI50 [23]: 51.7 µM
- TGI [23]: > 100 µM
- GI50 [24]: 19.1 µM
- TGI [24]: > 100 µM
- GI50 [25]: 21.5 µM
- TGI [25]: > 100 µM
- GI50 [26]: 21.1 µM
- TGI [26]: 63 µM
- GI50 [27]: 22.9 µM
- TGI [27]: > 100 µM
- GI50 [28]: 1.83 µM
- TGI [28]: 18.6 µM
- GI50 [29]: 20.4 µM
- TGI [29]: > 100 µM
- GI50 [30]: 17.7 µM
- TGI [30]: > 100 µM
- GI50 [31]: 16.3 µM
- TGI [31]: 45 µM
- GI50 [32]: 6.28 µM
- TGI [32]: 21.4 µM
- GI50 [33]: 12.2 µM
- TGI [33]: 41 µM
- GI50 [34]: 17.9 µM
- TGI [34]: 65.5 µM
- GI50 [35]: 11.3 µM
- TGI [35]: 24 µM
- GI50 [36]: 3.12 µM
- TGI [36]: 11.8 µM
- GI50 [37]: 28.4 µM
- TGI [37]: > 100 µM
- GI50 [38]: 12.2 µM
- TGI [38]: 35.8 µM
- GI50 [39]: 38.4 µM
- TGI [39]: > 100 µM
- GI50 [40]: 20.6 µM
- TGI [40]: > 100 µM
- GI50 [41]: 16.6 µM
- TGI [41]: 94.5 µM
- GI50 [42]: 26.3 µM
- TGI [42]: > 100 µM
- GI50 [43]: 13.5 µM
- TGI [43]: 35.1 µM
- GI50 [44]: 16.9 µM
- TGI [44]: 35.2 µM
- GI50 [45]: 20.8 µM
- TGI [45]: 83.1 µM
- GI50 [46]: > 100 µM
- TGI [46]: > 100 µM
- GI50 [47]: 24.9 µM
- TGI [47]: > 100 µM
- GI50 [48]: 14.9 µM
- TGI [48]: 45.1 µM
- GI50 [49]: 6.86 µM
- TGI [49]: 28.5 µM
- GI50 [50]: 23.8 µM
- TGI [50]: > 100 µM
- GI50 [51]: 12.6 µM
- TGI [51]: 33.4 µM
- GI50 [52]: 13.5 µM
- TGI [52]: 81 µM
- GI50 [53]: 9.55 µM
- TGI [53]: 24.5 µM
- GI50 [54]: 4.3 µM
- TGI [54]: 25.8 µM
- GI50 [55]: 11.4 µM
- TGI [55]: 24.9 µM
- GI50 [56]: 8.36 µM
- TGI [56]: 23.9 µM
- GI50 [57]: 23.6 µM
- TGI [57]: > 100 µM
- GI50 [58]: 29 µM
- TGI [58]: > 100 µM
- GI50 [59]: 11.2 µM
- TGI [59]: 25.4 µM

Structure (SMILES): CC1[C@H]2[C@H](C[C@H]3[C@@H]4CC=C5c6sc(Nc7ccccc7F)nc6CC[C@]5(C)[C@H]4CC[C@@]32C)O[C@]12CC[C@@H](C)CO2 (stereo partly specified)
- GI50 [1]: 85.4 µM
- TGI [1]: > 100 µM
- GI50 [2]: > 100 µM
- TGI [2]: > 100 µM
- GI50 [3]: > 100 µM
- TGI [3]: > 100 µM
- GI50 [4]: > 100 µM
- TGI [4]: > 100 µM
- GI50 [5]: 26.4 µM
- TGI [5]: > 100 µM
- GI50 [6]: > 100 µM
- TGI [6]: > 100 µM
- GI50 [7]: 5.1 µM
- TGI [7]: > 100 µM
- GI50 [8]: 62.1 µM
- TGI [8]: > 100 µM
- GI50 [9]: > 100 µM
- TGI [9]: > 100 µM
- GI50 [10]: > 100 µM
- TGI [10]: > 100 µM
- GI50 [11]: > 100 µM
- TGI [11]: > 100 µM
- GI50 [12]: 37.3 µM
- TGI [12]: > 100 µM
- GI50 [13]: 56.1 µM
- TGI [13]: > 100 µM
- GI50 [14]: 30.1 µM
- TGI [14]: > 100 µM
- GI50 [15]: > 100 µM
- TGI [15]: > 100 µM
- GI50 [16]: 42.3 µM
- TGI [16]: > 100 µM
- GI50 [17]: > 100 µM
- TGI [17]: > 100 µM
- GI50 [18]: 60.3 µM
- TGI [18]: > 100 µM
- GI50 [19]: > 100 µM
- TGI [19]: > 100 µM
- GI50 [20]: 26.6 µM
- TGI [20]: > 100 µM
- GI50 [21]: > 100 µM
- TGI [21]: > 100 µM
- GI50 [22]: 67.1 µM
- TGI [22]: > 100 µM
- GI50 [23]: 86.7 µM
- TGI [23]: > 100 µM
- GI50 [24]: > 100 µM
- TGI [24]: > 100 µM
- GI50 [25]: 38.2 µM
- TGI [25]: > 100 µM
- GI50 [26]: > 100 µM
- TGI [26]: > 100 µM
- GI50 [27]: 95.4 µM
- TGI [27]: > 100 µM
- GI50 [28]: 25.1 µM
- TGI [28]: > 100 µM
- GI50 [29]: 25.7 µM
- TGI [29]: > 100 µM
- GI50 [30]: > 100 µM
- TGI [30]: > 100 µM
- GI50 [31]: 59.5 µM
- TGI [31]: > 100 µM
- GI50 [32]: 91.1 µM
- TGI [32]: > 100 µM
- GI50 [33]: 34.7 µM
- TGI [33]: > 100 µM
- GI50 [34]: > 100 µM
- TGI [34]: > 100 µM
- GI50 [35]: > 100 µM
- TGI [35]: > 100 µM
- GI50 [36]: > 100 µM
- TGI [36]: > 100 µM
- GI50 [37]: > 100 µM
- TGI [37]: > 100 µM
- GI50 [38]: > 100 µM
- TGI [38]: > 100 µM
- GI50 [39]: 26.3 µM
- TGI [39]: > 100 µM
- GI50 [40]: 35.5 µM
- TGI [40]: > 100 µM
- GI50 [41]: 9.09 µM
- TGI [41]: 66.7 µM
- GI50 [42]: > 100 µM
- TGI [42]: > 100 µM
- GI50 [43]: 53.3 µM
- TGI [43]: > 100 µM
- GI50 [44]: 80.9 µM
- TGI [44]: > 100 µM
- GI50 [45]: > 100 µM
- TGI [45]: > 100 µM
- GI50 [46]: > 100 µM
- TGI [46]: > 100 µM
- GI50 [47]: 31.7 µM
- TGI [47]: > 100 µM
- GI50 [48]: > 100 µM
- TGI [48]: > 100 µM
- GI50 [49]: > 100 µM
- TGI [49]: > 100 µM
- GI50 [50]: > 100 µM
- TGI [50]: > 100 µM
- GI50 [51]: 31.2 µM
- TGI [51]: > 100 µM
- GI50 [52]: 24.8 µM
- TGI [52]: > 100 µM
- GI50 [53]: 76.1 µM
- TGI [53]: > 100 µM
- GI50 [54]: 25 µM
- TGI [54]: > 100 µM
- GI50 [55]: > 100 µM
- TGI [55]: > 100 µM
- GI50 [56]: > 100 µM
- TGI [56]: > 100 µM
- GI50 [57]: 54.1 µM
- TGI [57]: > 100 µM
- GI50 [58]: 43.1 µM
- TGI [58]: > 100 µM
- GI50 [59]: > 100 µM
- TGI [59]: > 100 µM
